Measured values published in paper PMC11352273, “The Proapoptotic Action of Pyrrolidinedione–Thiazolidinone Hybrids towards Human Breast Carcinoma Cells Does Not Depend on Their Genotype” (Cancers, 2024).
Like-named read-outs stand apart in the source and are kept apart here.

Columns and labels:
MCF-10A cells [1] = test: MTT assay; assay type: cell-based, human
Description: (§1) The MCF-7 and MDA-MB-231 cells were cultured in the DMEM medium containing 10% of the FBS, HCC1954, T-47D, and 4T1 cells in the RPMI-1640 medium with the addition of 10% of the FBS, and MCF-10A cells in MEGM Mammary Epithelial Cell Growth Medium BulletKit supplemented with penicillin/streptomycin cocktail and 5% of horse serum. The cells were cultured in a […] atmosphere at 5% CO2 and 37 °C. After trypsinization, cells were counted using a Scepter 3.0 handheld automated cell counter (Millipore, Burlington, MA, USA).
(§2) The MTT test was used to assess the metabolic activity of cells treated with the investigated substances following the Sigma-Aldrich manufacturer’s instructions. Briefly, compounds were added in 100 µL of the cultural medium, and cells were incubated for the next 24 and 48 h. Doxorubicin was used as a reference drug. The DMSO was added to dissolve the crystals of formazan. We used the ThermoScientific Evolution 201 UV–VIS spectrophotometer (ThermoFisher Scientific, Waltham, MA, USA) to measure the absorbance of formazan at 570 nm. The initial value of the relative number of cells in control (under 0.1% of the DMSO) was accepted as 100%. We used GraphPad Prism Version 9 to calculate the half-maximal inhibition concentration (IC50) of the studied compounds (the concentration of the drug that reduced cell viability by 50%).

4T1 cells = test: MTT assay; assay type: cell-based, murine; settings: Mus musculus, read-out: IC50, µM (M ± SD)
Description: as §1, §2

[2] = test system: MDA-MB-231, 4T1, MCF-7, T-47D, and HCC1954 cells; test: MTT assay, summary over breast carcinoma cell lines; assay type: cell-based; settings: for IC50: Breast carcinoma cell, 24 and 48 h, all five cancer cell lines and all three hybrids together, read-out: IC50, range over breast carcinoma cell lines; for selectivity index (SI = IC50 for MCF-10A/IC50 for human breast tumor cells): range over cell lines and time points
Description: as §1, §2

MCF-7 cells [3] = test: MTT assay; assay type: cell-based; settings: Homo sapiens, read-out: IC50, µM (M ± SD)
Description: as §1, §2

MDA-MB-231 cells [4] = test: MTT assay; assay type: cell-based; settings: Homo sapiens, read-out: IC50, µM (M ± SD)
Description: as §1, §2

HCC1954 cells [5] = test: MTT assay; assay type: cell-based; settings: Homo sapiens, read-out: IC50, µM (M ± SD)
Description: as §1, §2

T-47D cells = test: MTT assay; assay type: cell-based; settings: Homo sapiens, T47D, read-out: IC50, µM (M ± SD)
Description: as §1, §2

MCF-7 cells [6] = test: Clonogenic assay; assay type: cell-based, human; settings: for IC50: Homo sapiens, MCF7, MCF-7, 72 h exposure, 14 days culture, read-out: IC50 (M ± SD) in clonogenic assay; for formation of colonies: MCF-7, compound at 5 µM
Description: (§3) The clonogenic assay was carried out utilizing the previously published methodology. The MCF-7, MDA-MB-231, HCC1954, and MCF-10A cells (500 cells/2 mL) were seeded in a 12-well plate overnight. Afterward, studied derivatives or doxorubicin (1, 2.5, 5, 10, and 50 µM) were added to cells. The media was changed after 72 h to a compound-free one, and the cells were cultured for the following 14 days. Then, the cells were washed, fixed, and stained with 0.1% crystal violet. After washing, the plates were dried at room temperature. The colonies were recorded by ImageJ software (Version 1.30). The value of colonies in control (non-treated cells) was accepted as 100%. The effect of compounds on the colony-forming ability of cells was expressed as the percentage of colonies compared to the control.

MDA-MB-231 cells [7] = test: Clonogenic assay; assay type: cell-based, human; settings: for IC50: Homo sapiens, MDA-MB-231, 72 h exposure, 14 days culture, read-out: IC50 (M ± SD) in clonogenic assay
Description: as §3

HCC1954 cells [8] = test: Clonogenic assay; assay type: cell-based, human; settings: Homo sapiens; HCC1954; 72 h exposure, 14 days culture; read-out: IC50 (M ± SD) in clonogenic assay
Description: as §3

MCF-10A cells [9] = test: Clonogenic assay; assay type: cell-based; settings: Homo sapiens; for IC50: 72 h exposure, 14 days culture, read-out: IC50 (M ± SD) in clonogenic assay; for inhibition at 50 µM: compound at 50 µM, read-out: inhibition of the formation of colonies
Description: as §3

[10] = test system: mitogen-activated lymphocytes collected from the peripheral blood of a healthy donor; design: method as in PMID 37579525; settings: cited from earlier work
[11] = test system: normal human keratinocytes (HaCaT); design: method as in PMID 37579525; settings: cited from earlier work
[12] = Homo sapiens, MCF-10A, 24 h, MCF-10A, 24 h, read-out: IC50, µM (M ± SD)
[13] = Homo sapiens, MCF-10A, 48 h, MCF-10A, 48 h, read-out: IC50, µM (M ± SD)
[14] = Homo sapiens, MCF-10A, time point not specified (24 and 48 h), read-out: IC50 towards MCF-10A cells
[15] = time point not specified (24 and 48 h), read-out: IC50 towards MCF-10A cells

| SMILES | IC50 (MCF-10A cells [1]; [12]) | IC50 (MCF-10A cells [1]; [13]) | IC50 (MCF-10A cells [1]; [14]) | IC50 (MCF-10A cells [1]; [15]) | IC50 (4T1 cells; 4T1, 24 h) | IC50 (4T1 cells; 4T1, 48 h) | IC50 [2] | selectivity index (SI = IC50 for MCF-10A/IC50 for human breast tumor cells) [2] | IC50 (MCF-7 cells [3]; MCF7, MCF-7, 24 h) | IC50 (MCF-7 cells [3]; MCF7, MCF-7, 48 h) | IC50 (MDA-MB-231 cells [4]; MDA-MB-231, 24 h) | IC50 (MDA-MB-231 cells [4]; MDA-MB-231, 48 h) | IC50 (HCC1954 cells [5]; HCC1954, 24 h) | IC50 (HCC1954 cells [5]; HCC1954, 48 h) | IC50 (T-47D cells; 24 h) | IC50 (T-47D cells; 48 h) | IC50 (MCF-7 cells [6]) | formation of colonies (MCF-7 cells [6]) | IC50 (MDA-MB-231 cells [7]) | IC50 (HCC1954 cells [8]) | other results |
| --- | --- | --- | --- | --- | --- | --- | --- | --- | --- | --- | --- | --- | --- | --- | --- | --- | --- | --- | --- | --- | --- |
| O=C1CC(N2C(=O)C(=CC(Cl)=Cc3ccc([N+](=O)[O-])cc3)SC2=S)C(=O)N1c1ccc(Br)cc1 (stereo not drawn) [Les-6328, 1-(4-bromophenyl)-3-[5-[2-chloro-3-(4-nitrophenyl)prop-2-enylidene]-4-oxo-2-thioxothiazolidine-3-yl]pyrrolidine-2,5-dione] | > 100 µM | > 100 µM | > 100 µM | > 64.6 µM | 2.25 ± 0.34 µM | 1.94 ± 0.15 µM | 1.37 to 21.9 µM | 10.09–50.76 | 3.26 ± 0.4 µM | 2.18 ± 0.19 µM | 6.09 ± 0.33 µM | 2.01 ± 0.12 µM | 9.91 ± 0.17 µM | 6.4 ± 0.25 µM | 4.08 ± 0.56 µM | 1.97 ± 0.58 µM | 1.57 ± 0.12 µM | totally inhibited | 1.19 ± 0.03 µM | 1.54 ± 0.02 µM | formation of colonies (MDA-MB-231 cells [7]; MDA-MB-231, compound at 2.5 µM): did not observe the growth; IC50 (MCF-10A cells [9]): > 50 µM; inhibition at 50 µM (MCF-10A cells [9]): 25.9% |
| O=C1CC(N2C(=O)C(=CC(Cl)=Cc3ccc([N+](=O)[O-])cc3)SC2=S)C(=O)N1c1ccc(Cl)cc1 (stereo not drawn) [Les-6294, 1-(4-chlorophenyl)-3-[5-[2-chloro-3-(4-nitrophenyl)prop-2-enylidene]-4-oxo-2-thioxothiazolidine-3-yl]pyrrolidine-2,5-dione] | > 100 µM | > 100 µM | > 100 µM | > 64.6 µM | 2.2 ± 0.19 µM | 2.22 ± 0.25 µM | 1.37 to 21.9 µM | 4.57–37.59 | 6.74 ± 0.64 µM | 3.54 ± 0.14 µM | 21.9 ± 9.92 µM | 3.72 ± 0.22 µM | 4.53 ± 0.18 µM | 5.01 ± 0.23 µM | 4.48 ± 0.51 µM | 2.66 ± 0.21 µM | 1.33 ± 0.1 µM | totally inhibited | 0.67 ± 0.08 µM | 3.05 ± 0.03 µM | IC50 [10]: 29 to 67 µM; IC50 [11]: > 73.6 µM; formation of colonies (MDA-MB-231 cells [7]; MDA-MB-231, compound at 5 µM): did not observe the growth; IC50 (MCF-10A cells [9]): > 50 µM; inhibition at 50 µM (MCF-10A cells [9]): 37.1% |
